In US20250064932A1, “GLYCO-ENGINEERED CAR-T CELLS” (VIB VZW, priority 2021, published 2025):
Like-named read-outs stand apart in the source and are kept apart here.

Columns and labels:
human CD8+ T cells = settings: for T cell proliferation: IL-2
Procedure: Human CD8^+ T cells were purified and incubated with human T cell-activator CD3/CD28 dynabeads for T cell expansion and activation, and this in the presence of different cytokine combinations and increasing concentrations of DMSO. In order to evaluate the effect of DMSO on the proliferation of T cells in culture, cells were labeled with Tag-it Violet™ proliferation and cell tracking dye. […] Flow cytometry analysis was performed on multiple days following start up until day 11 in culture in order to evaluate T cell activation and differentiation markers.
(§1) For human T cell phenotyping, cells were labeled with fluorescent antibodies against human CD8, CD62L and CD45RA (BD Biosciences) and CD3, CD4, CD25, CD69, CD197 (CCR7), TIM-3 (CD366), CD152 (CTLA4) and CD279 (PD-1) (Biolegend). A Fixable dye eFluor™ 780 (eBioscience) was used to evaluate live/dead cells.
Peripheral blood lymphocytes were prepared by a Ficoll-Paque density centrifugation as described in the instruction manual for Leucosep™ (Greiner bio-one). CD8^+ T cells were isolated by negative selection (MojoSort™ Human CD8 T cell Isolation kit, Biolegend) according to the manufacture's protocol. Cells were cultured in RPMI 1640 medium (Gibco-BRL) supplemented with L-glutamine (0.03%, Gibco), 0.4 mM sodiumpyruvate (Merck Millipore) and 50 μM β-mercapto-ethanol (Sigma Aldrich) and 10% heat-inactivated fetal calf serum (FCS), in 48 well plates (Sarstedt) and stimulated with human anti-CD3/CD28 Dynabeads (1 bead:3 cell ratio) (Thermo Fisher Scientific) for 4 days at 37° C. Prior to cell seeding, Dynabeads and bead-bound cells were removed by separation on a magnet (after transfer to an Eppendorf tube) and the supernatant containing the CD8^+ T cells was collected. Cells were washed twice with PBS before putting them in culture with different cytokine combinations: (1) recombinant human (rh) IL-2 at 50 units/mL (Life Technologies); (2) rhIL-7 at 10 ng/mL (R&D systems) and rhIL-15 at 1 ng/mL (Miltenyi). Cytokines and medium were replaced every 2-3 days. Where indicated, increasing concentrations of DMSO (Sigma) were added as given by % v/v.
(§2) Human T cells were stained with Tag-it Violet™ Proliferation and Cell Tracking Dye (Biolegend), according to manufacturer's protocol.

[1] = tested on: human lymphocytes and neutrophils; settings: up to 1% v/v DMSO, PMA for 4 hours; cited from earlier work
lymphoma cell = settings: cited from earlier work
CD4+ T cell = settings: cited from earlier work
[2] = DMSO treated vs untreated, day 11, 1.2% DMSO

Source text for human CD3+ T cells: A protocol for in vitro isolation of CD3^+ T cell population used herein includes stimulation of purified human CD3^+ T cells in the presence of IL-12 and culturing in the presence of either IL-2 or IL-7/-15. This cultivation method provides for CD3^+ T cells populations skewed towards a naive phenotype. […] To this end, we validated the effect of DMSO on the activation and differentiation of CD3^+ T cells in the presence of IL-12 and subsequent culturing with different cytokine combinations.
We therefore evaluated the impact of increasing DMSO concentrations on the immunophenotype at day 14, and the impact of the highest DMSO concentration (1.2%) on the immunophenotype of CD3^+ T cell (sub)populations at day 13.
as §1
Leukocyte-enriched buffy coat samples were obtained from healthy donors attending the Red Cross center after informed consent and ethical committee approval (EC2019-1083). Peripheral blood lymphocytes were prepared by a Ficoll-Paque density centrifugation as described in the instruction manual for Leucosep™ (Greiner bio-one). CD3^+ T cells were isolated by negative selection (MojoSort™ Human CD3 T cell selection kit, Biolegend) according to the manufacture's protocol. Cells were cultured in IMDM+Glutamax medium (Gibco-BRL) supplemented with 10% heat-inactivated fetal calf serum (FCS) and stimulated with Immunocult™ Human CD3/CD28 T-Cell Activator (Stemcell Technologies) (25 μL/10^6 cells) for 3 days at 37° C. in the presence of 10 ng/mL IL-12 (Biolegend). Prior to cell seeding, cells were washed twice with PBS before putting them in culture with different cytokine combinations: (1) recombinant human (rh) IL-2 at 50 units/mL (Miltenyi); (2) rhIL-7 at 10 ng/mL (Miltenyi) and rhIL-15 at 10 ng/mL (Miltenyi). Cytokines and medium were replaced every 2-3 days. Cell densities were maintained between 1×10^6 and 3×10^6 cells/mL. Where indicated, increasing concentrations of DMSO (Sigma) were added as given by % v/v.
as §2

In the case of `C[S+](C)[O-]` [DMSO, Dimethyl sulfoxide], the “effect on survival of the cells” value (human CD8+ T cells) is reported as “does not have a negative effect on survival”, the survival rate (human CD8+ T cells) is reported as “small increases in survival rate” and the T cell proliferation (human CD8+ T cells; 0.6% DMSO) is reported as “still tolerated”. The T cell proliferation (human CD8+ T cells; 1.2% DMSO) was “marked decrease in T cell proliferation”, the “CD8+ T cell differentiation” value (human CD8+ T cells; CD8+ T cells purified from the same donor, IL-12 stimulation, IL-7 and IL-15, 1.2% DMSO, day 13) was “clearly skewed from naïve-like towards a TCM phenotype” and the “expression level of CD25” value (human CD8+ T cells; [2]) was “lower”. The “expression of CD69” value (human CD8+ T cells; [2]) was “higher”, the “decrease in proportion of CD8+ T cells expressing TIM-3” value (human CD8+ T cells; IL-2, increasing DMSO) was ~4% and the “proportion of cells expressing PD-1 after stimulation” value (human CD8+ T cells; IL-2, increasing DMSO) was “seems to decrease faster by day 7”. For the same compound, the T cell differentiation (human CD8+ T cells; IL-7 and IL-15) was “preferentially differentiate towards a TCM phenotype”, the “DMSO concentration with inhibitory effect on T cell proliferation” value (human CD8+ T cells; IL-7 and IL-15, prolonged culture) was ≥ 0.6% and the TIM-3 expression level (human CD8+ T cells; fluorescence intensity, in the presence of DMSO) was “markedly reduced”. The “frequency of CD25 positive cells” value (human CD8+ T cells; increasing DMSO (0.1%-1.2%)) was “decreases in time and with increasing DMSO concentration”, the “proportion of CD69 positive cells” value (human CD8+ T cells; increasing DMSO (0.1%-1.2%)) was “increases with increasing concentrations of DMSO” and the “T cell differentiation subsets” value (human CD8+ T cells; increasing DMSO, most clear with IL-2, day 11) was “a decrease in naive and effector CD8^+ T cells in favor of an increase in memory T cells”. For the same compound, the “cell surface marker expression (CD25, CD69, PD-1)” value (human CD3+ T cells; 1.2% DMSO) was “cell surface marker expression is increased”, the “frequency of CD25 and CD69 positive cells” value (human CD3+ T cells; 1.2% DMSO, IL-7 and IL-15, day 13) was “increases in the presence of DMSO” and the “CD3+ T cell differentiation” value (human CD3+ T cells; 1.2% DMSO, day 13) was “skews CD3^+ T cell differentiation towards a central memory phenotype”. For the same compound, the “proportion of cells expressing PD-1” value (human CD3+ T cells; 1.2% DMSO, day 13) was “seems to slightly increase”, the “TCM population of CD8+ T cells” value (human CD3+ T cells; 1.2% DMSO, about 20% in the untreated condition) was “over 80%” and the “expression of activation and exhaustion markers (CD25, CD69, PD-1)” value (human CD3+ T cells; DMSO up to 0.6%) was “does not alter the expression of activation and exhaustion markers”. For the same compound, the “CD3+ T cell survival and subset distribution” value (human CD3+ T cells; human, 13 day, 1.2 % v/v) was “did not impact CD3^+ T cell survival nor CD4′/CD8′ subset distribution”, the “CD3+ T cell survival and proliferation” value (human CD3+ T cells; human, 14 day) was “did not impact CD3^+ T cell survival and proliferation” and the “impact on CD4+ T cell differentiation” value (human CD3+ T cells; increasing DMSO) was “less pronounced”. The “CD4+/CD8+ subset distribution” value (human CD3+ T cells; increasing DMSO, day 14) was “does not have an impact on the subset distribution”, the “IFN-γ and TNF-α production in the cytoplasm” value [1] was “did not change IFN-γ and TNF-α production” and the “DMSO concentrations at which lymphoma cell death is prevented” value (lymphoma cell) was 1-2%. For the same compound, the “DMSO concentrations that suppress CD4+ T cell activation, cell growth and cytokine secretion” value (CD4+ T cell) was 0.1-1%.
